{"source": "paper PMC6855144", "about": "“Examination of the Glycine Betaine-Dependent Methylotrophic Methanogenesis Pathway: Insights Into Anaerobic Quaternary Amine Methylotrophy” (Frontiers in Microbiology, 2019)", "biological_target": "T1, MV8460 (MtgB) (Methanolobus vulcani, UniProt A0A7Z8KPC2)", "T1 construct": "gene FKV42_08460", "T1 sequence (A0A7Z8KPC2 1-475)": "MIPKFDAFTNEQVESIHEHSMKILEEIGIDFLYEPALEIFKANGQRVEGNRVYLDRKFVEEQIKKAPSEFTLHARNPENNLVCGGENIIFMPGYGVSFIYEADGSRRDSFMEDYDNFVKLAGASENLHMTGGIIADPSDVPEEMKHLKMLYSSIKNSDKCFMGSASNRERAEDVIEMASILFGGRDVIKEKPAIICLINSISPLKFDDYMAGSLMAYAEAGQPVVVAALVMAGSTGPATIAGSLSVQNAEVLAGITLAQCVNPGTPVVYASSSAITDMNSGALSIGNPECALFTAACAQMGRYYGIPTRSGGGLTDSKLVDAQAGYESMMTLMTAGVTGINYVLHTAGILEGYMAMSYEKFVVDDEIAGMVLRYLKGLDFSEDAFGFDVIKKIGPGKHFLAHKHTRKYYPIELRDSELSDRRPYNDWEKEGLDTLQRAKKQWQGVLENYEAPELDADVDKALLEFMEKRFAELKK", "experiment": "UV-vis, methylation of free cob(I)alamin at […] nm", "format": "biochemical", "settings": "methyl donor 50 mM; co-substrate cob(I)alamin; 37 °C; anoxic", "data": [{"smiles": "C[N+](C)(C)CC(=O)[O-]", "note": "[GB, glycine betaine]", "values": [{"measurement": "UV-vis, methylation of free cob(I)alamin at 540 nm", "value": "We detected methylation of free cob(I)alamin by MV8460 using GB as the methyl donor"}]}]}
